{"source": "patent US12593847B2", "about": "“Formulations” (SYNGENTA CROP PROTECTION AG, priority 2020, dated 2026)", "key": {"[1]": {"experiment": "Example 2: storage stability of standard formulation (pH 6.05), one year at 20-25° C.", "type": "physicochemical", "settings": "Example 2 formulation; for Concentration at t = 0: pH 6.05, before storage; for % loss: pH 6.05, one year at 20-25° C.; for Concentration at t = 1 year and 20-25 ° C.: pH 6.05, stored one year at 20-25° C.", "description": "Another standard formulation containing the follow active ingredients was created as follows:\nThe formulation was stored for one year at 20-25° C. The pH of 6.05 providing excellent chemical stability for picarbutrazox as well at the other active ingredients."}, "[2]": {"experiment": "Example 8: picarbutrazox and thiamethoxam stability relative to pH, 1 month at 50° C.", "type": "physicochemical", "settings": "for Change in thiamethoxam concentration after storage for 1 month at 50° C.: Example 8 formulation (20.8% w/w thiamethoxam); for Change in picarbutrazox concentration after storage for 1 month at 50° C.: Example 8 formulation (0.42% w/w picarbutrazox)", "excerpt": "Four standard formulations containing the follow active ingredients were created. The standard formulations contained customary formulation components and were then pH adjusted via the addition of either Sodium Hydroxide (NaOH) or Phosphoric Acid (H3PO4) to obtain a range of pH's."}, "[3]": {"experiment": "Example 7: picarbutrazox and thiamethoxam stability relative to pH, 54° C. for 2 weeks", "type": "physicochemical", "settings": "for Change in thiamethoxam concentration after storage at 54° C. for 2 weeks: Example 7 formulation (20.8% w/w thiamethoxam); for Change in picarbutrazox concentration after storage at 54° C. for 2 weeks: Example 7 formulation (0.42% w/w picarbutrazox)", "excerpt": "Two standard formulations containing the follow active ingredients were created. The standard formulations contained customary formulation components and were then pH adjusted via the addition of either Sodium Hydroxide (NaOH) or Phosphoric Acid (H3PO4) to obtain a range of pH's."}, "[4]": {"settings": "cited from earlier work; for time for degradation in water of at least 50%: pH 9"}, "[5]": {"settings": "pH 7; cited from earlier work"}, "[6]": {"experiment": "Example 10: storage stability of mixtures of 36% w/w and 0.8% w/w PCBX formulations, 2 weeks at 54 C.", "type": "physicochemical", "settings": "for Actual Measured % w/w PCBX in the combined mixture: before storage", "description": "A standard formulation was prepared which contained picarbutrazox at 36% w/w concentration. This was then mixed in differing ratios with a standard formulation which contained picarbutrazox at 0.8% w/w concentration. The mixtures were stored for 2 weeks at 54 C."}, "[7]": {"experiment": "Example 9: storage stability of 43.3% w/w picarbutrazox formulation", "type": "physicochemical", "settings": "Example 9 formulation, picarbutrazox only AI at 43.3% w/w, Initial pH 7.2", "description": "A standard formulation was prepared which contained picarbutrazox as the only Al at 43.3% w/w concentration. The initial pH was pH 7.2."}, "[8]": {"settings": "0% of 36% w/w PCBX formulation + 100% of 0.8% w/w PCBX formulation"}, "[9]": {"settings": "mixture 30% of 36% w/w PCBX formulation + 70% of 0.8% w/w PCBX formulation"}, "[10]": {"settings": "mixture 60% of 36% w/w PCBX formulation + 40% of 0.8% w/w PCBX formulation"}, "[11]": {"settings": "mixture 90% of 36% w/w PCBX formulation + 10% of 0.8% w/w PCBX formulation"}}, "note": "Where two headings read alike, the source gives them in different places."}
{"smiles": "N#Cc1c[nH]cc1-c1cccc2c1OC(F)(F)O2", "note": "[Fludioxonil]", "values": [{"measurement": "Concentration at t = 0", "setting": "[1]", "result": 0.955, "unit": "% w/w"}, {"measurement": "% loss", "setting": "[1]", "result": 1, "unit": "%"}, {"measurement": "Concentration at t = 1 year and 20-25 ° C.", "setting": "[1]", "result": 0.944, "unit": "% w/w"}]}
{"smiles": "COCC(=O)N(c1c(C)cccc1C)[C@H](C)C(=O)OC", "note": "[Mefenoxam]", "values": [{"measurement": "Concentration at t = 0", "setting": "[1]", "result": 5.78, "unit": "% w/w"}, {"measurement": "% loss", "setting": "[1]", "result": 0, "unit": "%"}, {"measurement": "Concentration at t = 1 year and 20-25 ° C.", "setting": "[1]", "result": 5.77, "unit": "% w/w"}]}
{"smiles": "Cn1cc(C(=O)Nc2ccccc2C2CC2C2CC2)c(C(F)F)n1", "note": "(centres unmarked) [Sedaxane]", "values": [{"measurement": "Concentration at t = 0", "setting": "[1]", "result": 0.974, "unit": "% w/w"}, {"measurement": "% loss", "setting": "[1]", "result": 0, "unit": "%"}, {"measurement": "Concentration at t = 1 year and 20-25 ° C.", "setting": "[1]", "result": 0.970, "unit": "% w/w"}]}
{"smiles": "CN1COCN(Cc2cnc(Cl)s2)/C1=N\\[N+](=O)[O-]", "note": "[Thiamethoxam]", "values": [{"measurement": "Concentration at t = 0", "setting": "[1]", "result": 19.5, "unit": "% w/w"}, {"measurement": "% loss", "setting": "[1]", "result": 2, "unit": "%"}, {"measurement": "Concentration at t = 1 year and 20-25 ° C.", "setting": "[1]", "result": 19.1, "unit": "% w/w"}, {"measurement": "Change in thiamethoxam concentration after storage for 1 month at 50° C.", "setting": "[2]; Initial pH 5.7", "result": "−1", "unit": "%"}, {"measurement": "Change in thiamethoxam concentration after storage for 1 month at 50° C.", "setting": "[2]; Initial pH 6.0", "result": "−1", "unit": "%"}, {"measurement": "Change in thiamethoxam concentration after storage for 1 month at 50° C.", "setting": "[2]; Initial pH 7.2", "result": "−5", "unit": "%"}, {"measurement": "Change in thiamethoxam concentration after storage for 1 month at 50° C.", "setting": "[2]; Initial pH 8.0", "result": "−7", "unit": "%"}, {"measurement": "Change in thiamethoxam concentration after storage at 54° C. for 2 weeks", "setting": "[3]; Initial pH 7.2", "result": "−1", "unit": "%"}, {"measurement": "Change in thiamethoxam concentration after storage at 54° C. for 2 weeks", "setting": "[3]; Initial pH 8.0", "result": "−3", "unit": "%"}, {"measurement": "Hydrolysis", "setting": "[4]; pH 1, 5, 7 (25° C.)", "result": "stable"}, {"measurement": "Hydrolysis DT50", "setting": "[4]; pH 9, 25° C.", "result": "7.3 to 15.6", "unit": "days"}]}
{"smiles": "CNC(=O)c1cc(Cl)cc(C)c1NC(=O)c1cc(Br)nn1-c1ncccc1Cl", "note": "[chlorantraniliprole]", "values": [{"measurement": "Aqueous photolysis DT50", "setting": "[5]", "result": "(25° C.). Aqueous photolysis DT50 0.37 d (pH 7)."}, {"measurement": "Hydrolysis", "setting": "[4]; pH 4-7 (25° C.)", "result": "stable"}, {"measurement": "Hydrolysis DT50", "setting": "[4]; pH 9, 25° C.", "result": 10, "unit": "days"}, {"measurement": "time for degradation in water of at least 50%", "setting": "[4]", "result": "less than 30 days"}]}
{"smiles": "CNC(=O)c1cc(C#N)cc(C)c1NC(=O)c1cc(Br)nn1-c1ncccc1Cl", "note": "[cyantraniliprole]", "values": [{"measurement": "Hydrolysis DT50", "setting": "[4]; pH 4, 20° C.", "result": 261, "unit": "days"}, {"measurement": "Hydrolysis DT50", "setting": "[4]; pH 7, 20° C.", "result": 61, "unit": "days"}, {"measurement": "Hydrolysis DT50", "setting": "[4]; pH 9, 20° C.", "result": 1.8, "unit": "days"}, {"measurement": "time for degradation in water of at least 50%", "setting": "[4]", "result": "less than 30 days"}]}
{"smiles": "Cn1nnnc1/C(=N\\OCc1cccc(NC(=O)OC(C)(C)C)n1)c1ccccc1", "note": "[picarbutrazox, 1,1-Dimethylethyl N-(6-((((Z)-((1-methyl-1H-tetrazol-5-yl)phenylmethylene)amino)oxy)methyl)-2-pyridinyl)carbamate]", "values": [{"measurement": "Change in PCBX concentration after storage for 2 weeks at 54 C.", "setting": "[6]; [8]", "result": 11, "unit": "%"}, {"measurement": "Actual Measured % w/w PCBX in the combined mixture", "setting": "[6]; [8]", "result": 0.85, "unit": "% w/w"}, {"measurement": "Change in PCBX concentration after storage for 2 weeks at 54 C.", "setting": "[6]; [9]", "result": 0, "unit": "%"}, {"measurement": "Actual Measured % w/w PCBX in the combined mixture", "setting": "[6]; [9]", "result": 11.4, "unit": "% w/w"}, {"measurement": "Change in PCBX concentration after storage for 2 weeks at 54 C.", "setting": "[6]; [10]", "result": 0, "unit": "%"}, {"measurement": "Actual Measured % w/w PCBX in the combined mixture", "setting": "[6]; [10]", "result": 21.8, "unit": "% w/w"}, {"measurement": "Change in PCBX concentration after storage for 2 weeks at 54 C.", "setting": "[6]; [11]", "result": 0, "unit": "%"}, {"measurement": "Actual Measured % w/w PCBX in the combined mixture", "setting": "[6]; [11]", "result": 32.6, "unit": "% w/w"}, {"measurement": "Concentration at t = 0", "setting": "[1]", "result": 0.365, "unit": "% w/w"}, {"measurement": "% loss", "setting": "[1]", "result": 0, "unit": "%"}, {"measurement": "Concentration at t = 1 year and 20-25 ° C.", "setting": "[1]", "result": 0.367, "unit": "% w/w"}, {"measurement": "Change in picarbutrazox concentration after storage for 1 month at 50° C.", "setting": "[2]; Initial pH 5.7", "result": "−16", "unit": "%"}, {"measurement": "Change in picarbutrazox concentration after storage for 1 month at 50° C.", "setting": "[2]; Initial pH 6.0", "result": "−16", "unit": "%"}, {"measurement": "Change in picarbutrazox concentration after storage for 1 month at 50° C.", "setting": "[2]; Initial pH 7.2", "result": "−13", "unit": "%"}, {"measurement": "Change in picarbutrazox concentration after storage for 1 month at 50° C.", "setting": "[2]; Initial pH 8.0", "result": "−5", "unit": "%"}, {"measurement": "Change in picarbutrazox concentration after storage at 54° C. for 2 weeks", "setting": "[3]; Initial pH 7.2", "result": "−10", "unit": "%"}, {"measurement": "Change in picarbutrazox concentration after storage at 54° C. for 2 weeks", "setting": "[3]; Initial pH 8.0", "result": "−6", "unit": "%"}, {"measurement": "Change in picarbutrazox concentration after storage for 1 month at 50° C.", "setting": "[7]", "result": "−1", "unit": "%"}, {"measurement": "Change in picarbutrazox concentration after storage for 2 weeks at 54° C.", "setting": "[7]", "result": "−2", "unit": "%"}]}
